Results published in PMC7232190, “FDA-Approved Drugs Efavirenz, Tipranavir, and Dasabuvir Inhibit Replication of Multiple Flaviviruses in Vero Cells” (Microorganisms, 2020).

What was measured:
[1] = test system: WNV (13-104); experiment: microbe, parasite or virus in culture; type: cell-based, West Nile virus; conditions: Vero cells; for EC50: West Nile virus, pretreatment 24 h, 48 h incubation, plaque assay
[2] = test system: ZIKV (Paraiba_01); experiment: Anti-ZIKV activity in human neural cells, pretreatment assay, UKF-NB-4 cells; type: cell-based, Zika virus; conditions: 48 h
[3] = test system: HCV genotype 1b replicon; design: method as in PMID 25534735; conditions: HCV subgenomic replicon; cited from earlier work
[4] = test system: WNV (Eg101); experiment: microbe, parasite or virus in culture; type: cell-based, West Nile virus; conditions: Vero cells; for EC50: pretreatment 24 h, 48 h incubation, plaque assay
[5] = test system: HCV genotype 1a replicon; design: method as in PMID 25534735; conditions: HCV subgenomic replicon; cited from earlier work
[6] = test system: ZIKV (MR-766); experiment: microbe, parasite or virus in culture; type: cell-based, Zika virus; conditions: Vero cells; for EC50: Zika virus, pretreatment 24 h, 48 h incubation, plaque assay
[7] = test system: ZIKV (Paraiba_01); experiment: Anti-ZIKV activity in human neural cells, pretreatment assay, HBCA cells; type: cell-based, Zika virus; conditions: 48 h
[8] = Cytotoxicity assay (Cell Counting Kit-8); type: cell-based; conditions: African green monkey; Vero cells, 72 h treatment, 0-100 µM
Method: (§1) For detailed cytotoxicity studies, Vero, HBCA, and UKF-NB-4 cells were seeded onto 96-well plates at a density of 10,000 cells per well and incubated for 24 h at 37 °C before being used in the experiment to form a confluent monolayer. After the incubation, tested compounds were added to the cells at concentrations of 0, 3.125, 6.25, 12.5, 25, 50, 75, and 100 µM, and treated under the same regime as during antiviral testing; i.e., pretreatment for 24 h with culture medium containing appropriate drug concentrations, then the medium was exchanged with fresh compound-containing medium. […] The 50% cytotoxic concentration (CC50) values, representing the concentration of compound that reduced cell viability by 50%, were calculated using GraphPad Prism (version 7.04, GraphPad Software, San Diego, CA, USA) as a nonlinear regression (inhibitor vs. normalized response, variable slope).

[9] = test system: flaviviral surface E antigen (all VBFs tested); experiment: Immunofluorescence staining of viral antigen in infected Vero cells; type: cell-based; conditions: 48 h p.i., 0, 40, 50 µM dasabuvir or efavirenz, 0, 75, 100 µM tipranavir
Method: The results obtained from antiviral assays were confirmed using a cell-based flavivirus immunostaining assay with a mouse monoclonal antibody that specifically recognizes the flavivirus group surface antigen, as described previously. Briefly, Vero cells seeded onto 96-well plates were treated with the test compound (0, 40, or 50 μM dasabuvir or efavirenz; 0, 75, or 100 μM tipranavir) and infected with the individual viruses at a multiplicity of infection of 0.1. After incubation at 37 °C for 48 h, the cell monolayers were fixed with cold acetone-methanol (1:1), blocked with 10% fetal bovine serum, and incubated with the flavivirus antibody (1:250; Sigma-Aldrich, Prague, Czech Republic). After washing, the cells were labeled with an anti-mouse goat secondary antibody conjugated with fluorescein isothiocyanate (FITC; 1:500) and counterstained with DAPI (4′,6-diamidino-2-phenylindole; 1 μg/mL) to allow visualization of the cell nuclei. The fluorescence signal was recorded with an Olympus IX71 epifluorescence microscope and processed by ImageJ software.

[10] = test system: TBEV (Hypr); experiment: microbe, parasite or virus in culture; type: cell-based, tick-borne encephalitis virus; conditions: for EC50: Tick-borne encephalitis virus, Vero
[11] = test system: ZIKV (strain MR-766); experiment: Anti-ZIKV activity in a post-treatment assay, plaque assay, Vero cells; type: cell-based, Zika virus; conditions: 50 µM, 48 h
[12] = test system: HBCA cells; experiment: Cytotoxicity assay (Cell Counting Kit-8); type: cell-based, Human
Method: as §1

[13] = test system: UKF-NB-4 cells; experiment: Cytotoxicity assay (Cell Counting Kit-8); type: cell-based, Human
Method: as §1

[14] = Cytotoxicity assay (Cell Counting Kit-8); type: cell-based, Human; conditions: human, 72 h treatment, 0-100 µM
Method: as §1

[15] = test system: ZIKV (strain MR-766); experiment: Inhibition of ZIKV-mediated cytopathic effect in a simultaneous treatment assay, Vero cells; conditions: 50 µM, 48 h
[16] = test system: ZIKV (Paraiba_01); experiment: microbe, parasite or virus in culture; type: cell-based, Zika virus; conditions: Vero cells; for EC50: Zika virus, pretreatment 24 h, 48 h incubation, plaque assay
[17] = test system: ZIKV (strain MR-766); experiment: Anti-ZIKV activity in a simultaneous treatment assay, plaque assay, Vero cells; type: cell-based, Zika virus; conditions: 50 µM, 48 h
[18] = test system: HIV; design: method as in PMID 21041916, PMID 18158073; conditions: H9 cells; read-out: EC90 (anti-HIV activity); cited from earlier work

SMILES | Selectivity Index (SI) (CC50/EC50) [1] | EC50 [1] [µM] | Selectivity Index (SI) (CC50/EC50) [4] | EC50 ([4]; West Nile virus, Vero) [µM] | Selectivity Index (SI) (CC50/EC50) [6] | EC50 [6] [µM] | CC50 at 72 h [8] [µM] | surface E antigen expression by all VBFs tested [9] | Selectivity Index (SI) (CC50/EC50) [10] | EC50 [10] [µM] | anti-ZIKV effect, drug applied 2 h post-infection [11] | highest non-toxic (>90% viability of the treated cells) concentration [12] [µM] | highest non-toxic (>90% viability of the treated cells) concentration [13] [µM] | CC50 at 72 h ([14]; HBCA cells) [µM] | CC50 at 72 h ([14]; UKF-NB-4 cells) [µM] | viability of the infected cells compared to uninfected controls (inhibition of ZIKV-mediated CPE) [15] [%] | Selectivity Index (SI) (CC50/EC50) [16] | EC50 [16] [µM] | effect on ZIKV titer in the culture [17] | other results
COc1c(-c2ccc3cc(NS(C)(=O)=O)ccc3c2)cc(-n2ccc(=O)[nH]c2=O)cc1C(C)(C)C [Dasabuvir, dasabuvir] | 6.48 | 15.7 | 5.60 | 18.8 | 6.54 | 15.5 | 102 | dose-dependent inhibition | 6.67 | 15.2 | even stronger compared to 7-deaza-2′-C-methyladenosine | 12.5 | 6.25 | 26 | 21.3 | > 90 | 6.29 | 16.1 | reduced ZIKV titer | virus titer reduction in comparison with mock-treated control cells ([2]; highest concentration of the drug): approximately 1 log10 pfu/mL; EC50 [3]: 1.8 nM; EC50 [4]: 18.1 µM; EC50 [5]: 7.7 nM; effect on ZIKV replication in the cell culture ([7]; 12.5 µM): completely suppressed ZIKV replication
O=C1Nc2ccc(Cl)cc2[C@@](C#CC2CC2)(C(F)(F)F)O1 [Efavirenz, efavirenz] | 4.50 | 16.3 | 3.35 | 21.9 | 2.41 | 30.4 | 73.6 | dose-dependent inhibition | 4.63 | 15.9 | antiviral effect | 3.125 | 12.5 | 16.7 | 31.9 | > 90 | 2.85 | 25.8 | reduced ZIKV titer | antiviral effect against ZIKV ([2]; any concentration tested): No antiviral effect; antiviral effect against ZIKV ([7]; any concentration tested): No antiviral effect
CCC[C@@]1(CCc2ccccc2)CC(O)=C([C@H](CC)c2cccc(NS(=O)(=O)c3ccc(C(F)(F)F)cn3)c2)C(=O)O1 [Tipranavir, tipranavir] | 5.58 | 24.2 | 4.12 | 32.7 | 4.45 | 30.3 | > 100 | dose-dependent inhibition | 3.79 | 35.5 | even stronger compared to 7-deaza-2′-C-methyladenosine | 12.5 | 50 | 34 | 89.2 | > 90 | – | 29.9 | reduced ZIKV titer | antiviral effect against ZIKV (virus titer reduction) ([2]; 50 µM): approx. 10^3 fold; reduction of ZIKV replication in the HBCA culture ([7]; 12.5 µM): approx. 10^3 fold; EC90 [18]: 100 nM
C[C@@H]1CCO[C@H]2Cn3cc(C(=O)NCc4ccc(F)cc4F)c(=O)c(O)c3C(=O)N12 [dolutegravir] | – | – | – | – | – | – | – | – | – | – | – | – | – | – | – | > 90 | – | – | – | –
